Patent US20220054493A1, “INHIBITORS OF NGAL PROTEIN” (INSERM (INSTITUT NATIONAL DE LA SANTÉ ET DE LA RECHERCHE …, priority 2019, published 2022)

How the values were obtained:
[1] = system: Myocardial Infarction Model; test: Cardiac function (echocardiography, LV hemodynamics) in the myocardial infarction model; assay type: in vivo, mice; details: MI model, 100 mg/kg/day in food admix, three months
Protocol: 8-12 weeks old mice (WT C57B16 for GP1 compound experiments) or 8-12 weeks old mice with genetic inactivation of lcn2 (as described in Martinez-martinez et al., Hypertension 2017, December; 70(6):1148-1156) have been used. LV diastolic and systolic diameters were measured in anesthetized (isofluorane 1.5%) mice, according to the American Society of Echocardiography's leading-edge method (using Vivid 7 echograph a 14 Mhz probe). In addition, LV outflow velocity was measured by pulsed waves, and CO was calculated as follows: CO=aortic VTI×[πx·(LV outflow diameter/2)^2]×heart rate, where VTI is velocity-time integral.
LV hemodynamic was assessed as described previously.
Mice were anesthetized (chloral 320 mg·kg−1, IP) and the carotid artery cannulated with a pressure-volume catheter (SPR839, Millar-Instruments, USA) and the catheter was advanced into the LV. Pressure-volume loops were obtained at baseline and during loading by gently occluding the abdominal aorta. LV end-systolic and end-diastolic pressures, dP/dtmax/min, LV relaxation constant tau and were measured/calculated with IOX software (EMKA, France).

[2] = system: Myocardial Infarction Model; test: Profibrotic, IL6 and inflammatory target tissue content in the myocardial infarction model; assay type: in vivo, mice; details: MI model, 100 mg/kg/day in food admix, three months
Protocol: Total protein aliquots of 20 μg were prepared from cardiac homogenates and electrophoresed on SDS polyacrylamide gels and transferred to Hybond-c Extra nitrocellulose membranes (Amersham Biosciences). Membranes were incubated with primary antibodies for: NGAL (Abcam; dilution 1:500), Collagen type III (Santa Cruz; dilution 1:500), a-SMA (Sigma; dilution 1:1000), CTGF Abcam; dilution 1:500), GDF-15 (Abcam; dilution 1:500), fibronectin (Millipore, 1:500), Galectin-3 (Thermo, 1:1000), Cardiotrophin-1 (Abcam, 1:500), osteopontin (Santa Cruz, 1:1000), cd3 (Abcam, 1:500), cd68 (Abcam, 1:500), cd80 (Santa Cruz, 1:500) and β-actin (Sigma; dilution 1:1000) as a loading control. […] After densitometric analyses, optical density values were expressed as arbitrary units. Results are expressed as an n-fold increase over the values of the control group in densitometric arbitrary units. NGAL, IL6 and collagen type I concentrations were measured in cardiac tissue and cell supernatants, respectively, by ELISA according to the manufacturer's instructions (R&D Systems).

hERG channel = biological target: T1, hERG channel (Homo sapiens, UniProt Q12809); test: Cardiotoxicity, Predictor hERG fluorescence polarization kit; assay type: binding
T1 construct: purchased Thermo Fisher Scientific
Protocol: (§1) Two specific toxicity assays have been performed to assess hepatoxicity and cardiotoxicity. Hepatotoxicity was evaluated in isolated hepatocytes from swiss mice and determined by the MTT colorimetric assay. Cardiotoxicity was evaluated using the commercially available Predictor hERG fluorescence polarization kit (Thermo Fisher Scientific). Several ADME assays have been carried out on the compounds generated throughout the project. The following experiments were undertaken: Stability in human microsomes, binding to human plasma protein, and CYP3A4 inhibition assay (Vivid CYP3A4 assay, Thermo Fisher Scientific). Physico-chemical properties were also assessed such as aqueous solubility and chemical stability.

CYP3A4 = biological target: T2, CYP3A4 (Homo sapiens, UniProt P08684); test: CYP3A4 inhibition assay (Vivid CYP3A4 assay); assay type: in vitro ADME
T2 construct: purchased Thermo Fisher Scientific
Protocol: as §1

CKD Mouse Model = test: Blood pressure in the CKD mouse model (subtotal nephrectomy); assay type: in vivo, mice; details: two months administration; FIG. 13
Protocol: Systolic BP was measured by tail-cuff plethysmography in trained conscious mice at weeks 8-10 using a BP2000 Visitech model. BP was measured every day in the same room at the same hour for 5 consecutive days. The BP measurements (expressed as mmHg) presented are the averages of the last 3 days
Chronic kidney disease (CKD) was induced by subtotal nephrectomy (Nx) in eight-weeks-old FVB male mice (25-26 g). All surgeries were performed under ketamine/xylazine anaesthesia. Briefly, the left kidney was exposed, and the upper and lower poles were tied with a poly-glycolic acid suture line. The peritoneum and skin were then sutured, and the animals were returned to their individual cages. After one week of recovery, the second kidney was removed. Removal of the second kidney represents TO. Sham mice were subjected to the same surgical procedures but neither renal poles nor the right kidney were removed. Mice were monitored for any sign of distress, and those observed to be experiencing severe, unrelievable pain were euthanized. Renal failure was assessed by the measure of plasma creatinine and urea with an automatic analyser (Konelab 20i; Thermo Fisher Scientific, Vernon Hills, Ill.) at weeks 4 and 10 post-Nx.

T2 sequence (P08684 whole entry): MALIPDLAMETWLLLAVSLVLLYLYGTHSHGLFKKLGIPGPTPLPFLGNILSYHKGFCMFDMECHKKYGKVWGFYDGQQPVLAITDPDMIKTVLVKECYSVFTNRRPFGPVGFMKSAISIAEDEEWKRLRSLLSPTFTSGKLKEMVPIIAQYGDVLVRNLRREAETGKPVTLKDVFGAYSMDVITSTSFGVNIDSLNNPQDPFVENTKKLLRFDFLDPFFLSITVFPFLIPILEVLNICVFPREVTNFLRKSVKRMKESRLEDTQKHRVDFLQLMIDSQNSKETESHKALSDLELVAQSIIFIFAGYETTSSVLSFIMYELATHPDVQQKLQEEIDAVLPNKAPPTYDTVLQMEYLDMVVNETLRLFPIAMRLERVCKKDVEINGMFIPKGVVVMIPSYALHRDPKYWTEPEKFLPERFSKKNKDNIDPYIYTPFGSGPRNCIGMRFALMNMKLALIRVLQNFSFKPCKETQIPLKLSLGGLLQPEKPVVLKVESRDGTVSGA
T1 sequence (Q12809 whole entry): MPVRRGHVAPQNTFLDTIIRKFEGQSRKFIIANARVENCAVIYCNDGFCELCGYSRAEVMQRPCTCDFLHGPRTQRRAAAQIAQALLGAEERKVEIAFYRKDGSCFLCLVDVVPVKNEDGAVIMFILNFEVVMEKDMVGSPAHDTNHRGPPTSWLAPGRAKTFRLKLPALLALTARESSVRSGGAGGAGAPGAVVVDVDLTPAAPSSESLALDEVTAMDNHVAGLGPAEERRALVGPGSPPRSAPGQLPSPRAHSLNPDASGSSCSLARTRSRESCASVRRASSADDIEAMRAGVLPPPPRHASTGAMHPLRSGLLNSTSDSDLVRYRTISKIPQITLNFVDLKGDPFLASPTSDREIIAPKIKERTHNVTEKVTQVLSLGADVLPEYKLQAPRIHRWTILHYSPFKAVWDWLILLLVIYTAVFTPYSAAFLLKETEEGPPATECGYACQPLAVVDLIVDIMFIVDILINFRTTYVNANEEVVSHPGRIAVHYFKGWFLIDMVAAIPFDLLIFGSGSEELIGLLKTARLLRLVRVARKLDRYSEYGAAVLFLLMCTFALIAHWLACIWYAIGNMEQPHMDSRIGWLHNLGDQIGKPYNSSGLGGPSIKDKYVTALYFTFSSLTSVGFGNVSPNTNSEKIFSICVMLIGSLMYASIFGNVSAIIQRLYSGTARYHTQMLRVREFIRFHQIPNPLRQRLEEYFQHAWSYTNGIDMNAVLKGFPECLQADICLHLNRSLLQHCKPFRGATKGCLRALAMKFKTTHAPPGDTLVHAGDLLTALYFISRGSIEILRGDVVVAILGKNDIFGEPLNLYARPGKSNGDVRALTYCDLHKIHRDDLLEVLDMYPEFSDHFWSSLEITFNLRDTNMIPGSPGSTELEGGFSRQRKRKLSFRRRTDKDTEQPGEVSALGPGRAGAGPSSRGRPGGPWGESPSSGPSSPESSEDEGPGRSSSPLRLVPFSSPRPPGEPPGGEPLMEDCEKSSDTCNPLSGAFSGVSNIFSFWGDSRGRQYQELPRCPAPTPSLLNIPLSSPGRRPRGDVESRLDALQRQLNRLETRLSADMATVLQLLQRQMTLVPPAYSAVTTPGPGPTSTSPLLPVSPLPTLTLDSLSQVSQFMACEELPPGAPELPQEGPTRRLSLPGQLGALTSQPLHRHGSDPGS

CC(=O)c1cccc(S(=O)(=O)NCc2ccccc2-n2cccn2)c1 [GPZ614741] was tested, and the “fractional shortening (LV Frac. Short.)” value ([1]; FIG. 7 panel A) was “significant increase”, the stroke volume ([1]; FIG. 7 panel D) was “increased” and the cardiac output ([1]; FIG. 7 panel E) was “increased”. For the same molecule, the “LV diastolic diameter (LV Diast. Diam.)” value ([1]; FIG. 7 panels B-C) was “slight although statistical non-significant decrease”, the “LV systolic diameter (LV Syst. Diam.)” value ([1]; FIG. 7 panels B-C) was “slight although statistical non-significant decrease” and the “LV end-systolic pressure (LVESP)” value ([1]; FIG. 8 panel A) was “not modified”. The “LV dP/dtmax” value ([1]; FIG. 8 panel B) was “significant increase”, the “LV end-diastolic pressure (LVEDP)” value ([1]; FIG. 8 panel C) was “tended to be reduced” and the “LV dP/dtmin” value ([1]; FIG. 8 panel D) was “increased”. For the same molecule, the “LV relaxation constant Tau” value ([1]; FIG. 8 panel E) was “decreased”, the aSMA tissue content ([2]; FIG. 10 panel A) was “significant prevention of up regulation” and the GDF15 tissue content ([2]; FIG. 10 panel B) was “significant prevention of up regulation”. For the same molecule, the CTGF tissue content ([2]; FIG. 10 panel C) was “significant prevention of up regulation”, the Col1 tissue content ([2]; FIG. 10 panel D) was “significant prevention of up regulation” and the IL6 tissue content ([2]; FIG. 11 panel A) was “significant prevention of up regulation”. For the same molecule, the CD68 tissue content ([2]; FIG. 12 panel C) was “significant prevention of up regulation”, the “CD 80 tissue content” value ([2]; FIG. 12 panel D) was “significant prevention of up regulation” and the CD86 tissue content ([2]; FIG. 12 panel E) was “significant prevention of up regulation”. For the same molecule, the CD3 tissue content ([2]; FIG. 12 panels A, B) was “significant prevention of up regulation”, the “cardiotoxicity (hERG predictor assay)” value (hERG channel) was “no toxicity” and the “Cardiotoxicity % (100 = no toxicity)” value (hERG channel; 100 = no toxicity) was 101.76 ± 2.48%. The “processing by CYP3A4” value (CYP3A4) was “partially processed”, the Activity (CYP3A4; human, recombinant CYP3A4 (Vivid CYP3A4 assay kit), 100 = no inhibition, read-out: CyP 3A4 Inhibition % (100 = no inhibition)) was 72.2 ± 1.94% and the “increase of blood pressure induced by CKD” value (CKD Mouse Model) was “prevented the increase”.
